{
  "source": "paper PMC11036078",
  "about": "“PD‐1 inhibition with retifanlimab and/or arginase inhibition with INCB001158 in Japanese patients with solid tumors: A phase I study” (Cancer Medicine, 2024)",
  "key": {"[1]": {"assay": "Safety and tolerability (TEAEs, DLTs, irAEs; NCI CTCAE v5.0), phase Ib POD1UM-104", "details": "in vivo", "method": "This was a phase Ib, open‐label, multicenter study (POD1UM‐104 [NCT03910530]). The study was conducted in 2 parts. In Part 1, patients received single‐agent retifanlimab or escalating doses of single‐agent INCB001158 to confirm the RP2D of each agent. Single‐agent dosing was performed to comply with local regulations. In Part 2, patients received the combination of retifanlimab and INCB001158 at their respective RP2D determined in Part 1, to further explore safety and preliminary evidence of clinical activity. Treatment cycles in Part 1 and Part 2 were 28 days, and patients could receive treatment for up to 2 years, or until disease progression, unacceptable toxicity, death, or patient withdrawal.\nIn Part 1, 6 patients received retifanlimab 500 mg every 4 weeks (Q4W), given as an i.v. infusion over 60 min; this dose was based on the RP2D determined from global studies. The starting dose of INCB001158 was 75 mg taken orally twice daily (BID). Dose escalation of INCB001158 followed a standard 3 + 3 design; if 75 mg BID was deemed to be tolerable in at least 3 patients, a 100‐mg BID dose level cohort comprising at least 3 patients would be opened.\nDLTs were assessed by the investigator according to the National Cancer Institute (NCI) Common Terminology Criteria for Adverse Events (CTCAE) v5.0 criteria (Table S1).\nThe primary endpoints of the study were safety, tolerability, DLTs, and RP2D of single‐agent retifanlimab, INCB001158, and the combination. Adverse events (AEs) were graded by NCI CTCAE v5.0, and immune‐related adverse events (irAEs) were monitored as AEs of special interest. Physical examinations, monitoring of vital signs, electrocardiograms, and laboratory assessments were conducted throughout the study.\n(§1) Safety and efficacy analyses were conducted in the full analysis set, which comprised all enrolled patients who received at least 1 dose of the study drug.\n(§2) Safety data were summarized using descriptive statistics. PK parameters were summarized by study part, treatment regimen, cohort, dose levels, and/or visit. ORR and DCR were reported with their exact 95% confidence intervals (CIs); DOR was based on the Kaplan–Meier estimate of the distribution function, and the estimated median along with 95% CI was reported. Statistical analyses were performed using SAS® software v9.4 or later (SAS Institute Inc., Cary, NC, USA)."}, "advanced solid tumors": {"tested_on": "advanced solid tumors", "assay": "Clinical activity by investigator per RECIST v1.1 (ORR, DCR, DOR)", "type": "in vivo, Japanese patients", "details": "n = 6 per group", "method": "Preliminary clinical activity of single‐agent retifanlimab and INCB001158, and the combination, was an additional secondary endpoint. Diagnostic imaging was performed by computed tomography scan every 8 ± 1 weeks. Clinical activity was assessed by measuring overall response rate (ORR), defined as the percentage of patients experiencing a complete or partial response (CR or PR) as determined by the investigator according to Response Evaluation Criteria in Solid Tumors (RECIST) v1.1; disease control rate (DCR), defined as the percentage of patients maintaining either an objective response or stable disease (SD) for at least 12 weeks per RECIST v1.1; and duration of response (DOR), defined as the time from first observed response until onset of progressive disease (PD) as determined by the investigator according to RECIST v1.1 or death from any cause.\nas §1, §2"}, "[2]": {"tested_on": "advanced/metastatic solid tumours", "details": "cited from earlier work"}, "urea cycle": {"tested_on": "urea cycle", "assay": "Pharmacodynamics: urinary orotic acid and plasma ammonia (urea cycle inhibition)", "type": "in vivo, Japanese patients", "method": "(§3) Pharmacodynamics of INCB001158 alone or in combination were assessed as an exploratory objective. Urine was collected at regular intervals from patients in the INCB001158 monotherapy and combination groups to assess urinary orotic acid levels and evaluate whether INCB001158 inhibits the urea cycle. Plasma samples from patients in these groups were also assessed for ammonia, arginine, and ornithine levels."}, "tumor growth": {"tested_on": "tumor growth", "set-up": "method as in PMID 29254508", "details": "preclinical; cited from earlier work"}, "arginase": {"tested_on": "arginase", "assay": "Pharmacodynamics: plasma arginine levels", "type": "in vivo, Japanese patients", "details": "change from baseline", "method": "as §3"}, "[3]": {"details": "INCB001158 monotherapy, 33 patients with microsatellite‐stable metastatic colorectal cancer"}, "[4]": {"details": "in combination with gemcitabine/cisplatin, phase I/II, advanced biliary tract cancer"}, "[5]": {"details": "in combination with pembrolizumab, 43 patients with microsatellite‐stable colorectal cancer"}},
  "note": "Where “and” joins values, the source holds several entries; their conditions need not be identical. Equal entries are not always repeated. Where two headings read alike, the source gives them in different places.",
  "data": [
    {"molecule": "C[C@H](N)C(=O)N1C[C@H](CCCB(O)O)[C@](N)(C(=O)O)C1", "note": "[INCB001158]", "values": [
      {"measurement": "Serious TEAEs (terms)", "setting": "[1]; human", "result": "grade 2 inguinal hernia (n = 1)"},
      {"measurement": "TEAE: ALT increased", "setting": "[1]; human", "result": "0 n (%)"},
      {"measurement": "TEAE: AST increased", "setting": "[1]; human", "result": "0 n (%)"},
      {"measurement": "TEAE: Amylase increased", "setting": "[1]; human", "result": "0 n (%)"},
      {"measurement": "TEAE: Anemia", "setting": "[1]; human", "result": "1 (16.7) n (%)"},
      {"measurement": "TEAE: Blood creatinine increased", "setting": "[1]; human", "result": "0 n (%)"},
      {"measurement": "TEAE: Diarrhea", "setting": "[1]; human", "result": "1 (16.7) n (%)"},
      {"measurement": "TEAE: Nausea", "setting": "[1]; human", "result": "0 n (%)"},
      {"measurement": "TEAE: Pruritus", "setting": "[1]; human", "result": "0 n (%)"},
      {"measurement": "TEAE: Pyrexia", "setting": "[1]; human", "result": "0 n (%)"},
      {"measurement": "TEAE: Rash", "setting": "[1]; human", "result": "0 n (%)"},
      {"measurement": "TRAEs reported (terms)", "setting": "[1]; human", "result": "diarrhea (n = 1) and anemia and hyperbilirubinemia (n = 1)"},
      {"measurement": "Treatment discontinuation because of a TEAE", "setting": "[1]; human", "result": "0 n (%)"},
      {"measurement": "Grade 3 AEs reported but not occurring during the treatment window", "setting": "[1]", "result": "anemia"},
      {"measurement": "Best overall response: Complete response", "setting": "advanced solid tumors; RECIST v1.1, investigator", "result": "0 n (%)"},
      {"measurement": "Best overall response: Partial response", "setting": "advanced solid tumors; RECIST v1.1, investigator", "result": "0 n (%)"},
      {"measurement": "Best overall response: Progressive disease", "setting": "advanced solid tumors; RECIST v1.1, investigator", "result": "3 (50.0) n (%)"},
      {"measurement": "Best overall response: Stable disease", "setting": "advanced solid tumors; RECIST v1.1, investigator", "result": "3 n (%) and 3 (50.0) n (%)"},
      {"measurement": "Objective response rate", "setting": "advanced solid tumors; RECIST v1.1, investigator", "result": "0 [0–45.9] n (%) [95% CI]"},
      {"measurement": "DCR", "setting": "advanced solid tumors; RECIST v1.1, 95% CI, 11.8–88.2", "result": 50, "unit": "%"},
      {"measurement": "DCR", "setting": "[2]; [3]", "result": 27, "unit": "%"},
      {"measurement": "Number of PRs", "setting": "[2]; [3]", "result": 1},
      {"measurement": "ORR", "setting": "[2]; [4]", "result": 24, "unit": "%"},
      {"measurement": "Patients with SD", "setting": "[2]; [4]", "result": 42, "unit": "%"},
      {"measurement": "DCR", "setting": "[2]; [5]", "result": 30, "unit": "%"},
      {"measurement": "Number of PRs", "setting": "[2]; [5]", "result": 3},
      {"measurement": "Urine orotic acid", "setting": "urea cycle; change from baseline", "result": "no marked rises"},
      {"measurement": "Symptoms of significant urea cycle inhibition", "setting": "urea cycle; e.g., unexplained anorexia, nausea, vomiting", "result": "no symptoms"},
      {"measurement": "Plasma ammonia", "setting": "urea cycle; patients receiving INCB001158", "result": "no concurrent increases"},
      {"measurement": "Urea cycle inhibition", "setting": "urea cycle; patients receiving INCB001158", "result": "no evidence of consistent urea cycle inhibition"},
      {"measurement": "Antitumor activity in mouse models", "setting": "tumor growth", "result": "demonstrated antitumor activity"},
      {"measurement": "Tumor growth when combined with ICB", "setting": "tumor growth", "result": "synergistically inhibited tumor growth"},
      {"measurement": "Plasma arginine levels", "setting": "arginase", "result": "Immediate and consistent increases"}
    ]}
  ]
}
